Measured values from patent publication EP0385712B1, “A peptide for use in the manufacture of a composition for prevention or treatment of a condition susceptible to treatment with a platelet aggregation inhibition agent” (ASAHI KASEI KOGYO KABUSHIKI KAISHA, priority 1989, dated 1994).
Positions of bridges follow the written chain, without caps; N, C: chain ends. Residues, ends and D or L forms follow the SMILES beside them.

test system: rat, Wister strain; assay: Acute toxicity in rat, intravenous; assay type: in vivo; details: body weight 80 - 90 g, 80 µg/kg intravenously in the tail, solution in 0.1 M aqueous sodium acetate containing 0.1 % bovine serum albumin
Procedure: A solution of each of the following compounds in 0.1 M aqueous sodium acetate containing 0.1 % bovine serum albumin is administered into a rat, Wister strain, body weight 80 - 90 g, 80 µg/kg, intraveneously in the tail.

Row | Compound | Acute toxicity (deaths)
1 | r - α - CGRP | No deaths were observed
2 | CC(C)C[C@H](NC(=O)[C@H](CCCNC(=N)N)NC(=O)[C@H](Cc1c[nH]cn1)NC(=O)[C@@H](NC(=O)[C@@H](NC(=O)[C@@H]1CSSC[C@H](NC(=O)[C@H](C)N)C(=O)N[C@@H](CC(N)=O)C(=O)N[C@@H]([C@@H](C)O)C(=O)N[C@@H](C)C(=O)N[C@@H]([C@@H](C)O)C(=O)N1)C(C)C)[C@@H](C)O)C(=O)N[C@@H](C)C(=O)N[C@@H](CCC(=O)O)C(=O)N[C@@H](Cc1ccccc1)C(=O)N[C@@H](CC(C)C)C(=O)N[C@@H](CO)C(=O)N[C@@H](CCCNC(=N)N)C(=O)N[C@@H](CO)C(=O)NCC(=O)NCC(=O)N[C@H](C(=O)N[C@H](C(=O)N[C@@H](CCCCN)C(=O)N[C@@H](CC(N)=O)C(=O)N[C@@H](CC(N)=O)C(=O)N[C@@H](Cc1ccccc1)C(=O)N[C@H](C(=O)N1CCC[C@H]1C(=O)N[C@H](C(=O)N[C@@H](CC(N)=O)C(=O)N[C@H](C(=O)NCC(=O)N[C@@H](CO)C(=O)N[C@@H](CCCCN)C(=O)N[C@@H](C)C(=O)N[C@@H](Cc1ccccc1)C(N)=O)C(C)C)[C@@H](C)O)C(C)C)C(C)C)C(C)C [[Asn³, Glu¹⁴, Phe¹⁵] -h -α-CGRP] (H-ACNTATCVTHRLAEFLSRSGGVVKNNFVPTNVGSKAF-NH2; disulfide 2-7) | No deaths were observed
3 | desalanyl-deamino- [Glu¹⁴ ] -h -α-CGRP | No deaths were observed
4 | r - β- CGRP | No deaths were observed
5 | c - CGRP | No deaths were observed
6 | desalanyl-deamino-h-α-CGRP | No deaths were observed
7 | desalanyl- [Asp^3, Asu^2,⁷)-c-CGRP | No deaths were observed
8 | desalanyl-deamino-c-CGRP | No deaths were observed
9 | CC(C)C[C@H](NC(=O)[C@H](CCCNC(=N)N)NC(=O)[C@H](Cc1c[nH]cn1)NC(=O)[C@@H](NC(=O)[C@@H](NC(=O)[C@@H]1CSSC[C@H](NC(=O)[C@H](C)N)C(=O)N[C@@H](CC(N)=O)C(=O)N[C@@H]([C@@H](C)O)C(=O)N[C@@H](C)C(=O)N[C@@H]([C@@H](C)O)C(=O)N1)C(C)C)[C@@H](C)O)C(=O)N[C@@H](C)C(=O)N[C@@H](CC(=O)O)C(=O)N[C@@H](CC(C)C)C(=O)N[C@@H](CC(C)C)C(=O)N[C@@H](CO)C(=O)N[C@@H](CCCNC(=N)N)C(=O)N[C@@H](CO)C(=O)NCC(=O)NCC(=O)N[C@H](C(=O)NCC(=O)N[C@@H](CCCCN)C(=O)N[C@@H](CC(N)=O)C(=O)N[C@@H](CC(N)=O)C(=O)N[C@@H](Cc1ccccc1)C(=O)N[C@H](C(=O)N1CCC[C@H]1C(=O)N[C@H](C(=O)N[C@@H](CC(N)=O)C(=O)N[C@H](C(=O)NCC(=O)N[C@@H](CO)C(=O)N[C@@H](CCCCN)C(=O)N[C@@H](C)C(=O)N[C@@H](Cc1ccccc1)C(N)=O)C(C)C)[C@@H](C)O)C(C)C)C(C)C [[Asn³, Asp¹⁴, Gly²³] -h -α-CGRP] (H-ACNTATCVTHRLADLLSRSGGVGKNNFVPTNVGSKAF-NH2; disulfide 2-7) | No deaths were observed
10 | desalanyl-deamino- [Asn³, Glu¹⁴, Gly²³] -h -α-CGRP | No deaths were observed
11 | desalanyl- [Asu^2,7] -h - α-CGRP | No deaths were observed
12 | desalanyl-deamino- [Asn³, Glu¹⁴, Phe¹⁵] -h -α-CGRP | No deaths were observed
13 | CC(C)C[C@H](NC(=O)[C@H](CCCNC(=N)N)NC(=O)[C@H](Cc1c[nH]cn1)NC(=O)[C@@H](NC(=O)[C@@H](NC(=O)[C@@H]1CSSC[C@H](NC(=O)[C@H](C)N)C(=O)N[C@@H](CC(N)=O)C(=O)N[C@@H]([C@@H](C)O)C(=O)N[C@@H](C)C(=O)N[C@@H]([C@@H](C)O)C(=O)N1)C(C)C)[C@@H](C)O)C(=O)N[C@@H](C)C(=O)NCC(=O)N[C@@H](Cc1ccccc1)C(=O)N[C@@H](CC(C)C)C(=O)N[C@@H](CO)C(=O)N[C@@H](CCCNC(=N)N)C(=O)N[C@@H](CO)C(=O)NCC(=O)NCC(=O)N[C@H](C(=O)NCC(=O)N[C@@H](CCCCN)C(=O)N[C@@H](CC(N)=O)C(=O)N[C@@H](CC(N)=O)C(=O)N[C@@H](Cc1ccccc1)C(=O)N[C@H](C(=O)N1CCC[C@H]1C(=O)N[C@H](C(=O)N[C@@H](CC(N)=O)C(=O)N[C@H](C(=O)NCC(=O)N[C@@H](CO)C(=O)N[C@@H](CCCCN)C(=O)N[C@@H](C)C(=O)N[C@@H](Cc1ccccc1)C(N)=O)C(C)C)[C@@H](C)O)C(C)C)C(C)C [[Asn³, Phe¹⁵, Gly²³] -h -α-CGRP] (H-ACNTATCVTHRLAGFLSRSGGVGKNNFVPTNVGSKAF-NH2; disulfide 2-7) | No deaths were observed
14 | h - β- CGRP | No deaths were observed
15 | CC(C)C[C@H](NC(=O)[C@H](CCCNC(=N)N)NC(=O)[C@H](Cc1c[nH]cn1)NC(=O)[C@@H](NC(=O)[C@@H](NC(=O)[C@@H]1CSSC[C@H](NC(=O)[C@H](C)N)C(=O)N[C@@H](CC(N)=O)C(=O)N[C@@H]([C@@H](C)O)C(=O)N[C@@H](C)C(=O)N[C@@H]([C@@H](C)O)C(=O)N1)C(C)C)[C@@H](C)O)C(=O)N[C@@H](C)C(=O)N[C@@H](CC(=O)O)C(=O)N[C@@H](Cc1ccccc1)C(=O)N[C@@H](CC(C)C)C(=O)N[C@@H](CO)C(=O)N[C@@H](CCCNC(=N)N)C(=O)N[C@@H](CO)C(=O)NCC(=O)NCC(=O)N[C@H](C(=O)N[C@H](C(=O)N[C@@H](CCCCN)C(=O)N[C@@H](CC(N)=O)C(=O)N[C@@H](CC(N)=O)C(=O)N[C@@H](Cc1ccccc1)C(=O)N[C@H](C(=O)N1CCC[C@H]1C(=O)N[C@H](C(=O)N[C@@H](CC(N)=O)C(=O)N[C@H](C(=O)NCC(=O)N[C@@H](CO)C(=O)N[C@@H](CCCCN)C(=O)N[C@@H](C)C(=O)N[C@@H](Cc1ccccc1)C(N)=O)C(C)C)[C@@H](C)O)C(C)C)C(C)C)C(C)C [[Asn³, Asp¹⁴, Phe¹⁵] -h -α-CGRP] (H-ACNTATCVTHRLADFLSRSGGVVKNNFVPTNVGSKAF-NH2; disulfide 2-7) | No deaths were observed
16 | p - CGRP | No deaths were observed
17 | CC(C)C[C@H](NC(=O)CNC(=O)[C@H](C)NC(=O)[C@H](CC(C)C)NC(=O)[C@H](CCCNC(=N)N)NC(=O)[C@H](Cc1cnc[nH]1)NC(=O)[C@@H](NC(=O)[C@@H](NC(=O)[C@@H]1CSSC[C@H](NC(=O)[C@H](C)N)C(=O)N[C@@H](CC(=O)O)C(=O)N[C@@H]([C@@H](C)O)C(=O)N[C@@H](C)C(=O)N[C@@H]([C@@H](C)O)C(=O)N1)C(C)C)[C@@H](C)O)C(=O)N[C@@H](CC(C)C)C(=O)N[C@@H](CO)C(=O)N[C@@H](CCCNC(=N)N)C(=O)N[C@@H](CO)C(=O)NCC(=O)NCC(=O)N[C@H](C(=O)N[C@H](C(=O)N[C@@H](CCCCN)C(=O)N[C@@H](CC(N)=O)C(=O)N[C@@H](CC(N)=O)C(=O)N[C@@H](Cc1ccccc1)C(=O)N[C@H](C(=O)N1CCC[C@H]1C(=O)N[C@H](C(=O)N[C@@H](CC(N)=O)C(=O)N[C@H](C(=O)NCC(=O)N[C@@H](CO)C(=O)N[C@@H](CCCCN)C(=O)N[C@@H](C)C(=O)N[C@@H](Cc1ccccc1)C(N)=O)C(C)C)[C@@H](C)O)C(C)C)C(C)C)C(C)C [h - α - CGRP] | No deaths were observed
18 | desalanyl- [Asu^2,⁷] - c-CGRP | No deaths were observed
19 | desalanyl-deamino-h-β-CGRP | No deaths were observed
20 | desalanyl- [Asu^2,7] -h -β-CGRP | No deaths were observed
21 | CC(C)C[C@H](NC(=O)[C@H](CCCNC(=N)N)NC(=O)[C@H](Cc1c[nH]cn1)NC(=O)[C@@H](NC(=O)[C@@H](NC(=O)[C@@H]1CSSC[C@H](NC(=O)[C@H](C)N)C(=O)N[C@@H](CC(N)=O)C(=O)N[C@@H]([C@@H](C)O)C(=O)N[C@@H](C)C(=O)N[C@@H]([C@@H](C)O)C(=O)N1)C(C)C)[C@@H](C)O)C(=O)N[C@@H](C)C(=O)N[C@@H](CCC(=O)O)C(=O)N[C@@H](CC(C)C)C(=O)N[C@@H](CC(C)C)C(=O)N[C@@H](CO)C(=O)N[C@@H](CCCNC(=N)N)C(=O)N[C@@H](CO)C(=O)NCC(=O)NCC(=O)N[C@H](C(=O)NCC(=O)N[C@@H](CCCCN)C(=O)N[C@@H](CC(N)=O)C(=O)N[C@@H](CC(N)=O)C(=O)N[C@@H](Cc1ccccc1)C(=O)N[C@H](C(=O)N1CCC[C@H]1C(=O)N[C@H](C(=O)N[C@@H](CC(N)=O)C(=O)N[C@H](C(=O)NCC(=O)N[C@@H](CO)C(=O)N[C@@H](CCCCN)C(=O)N[C@@H](C)C(=O)N[C@@H](Cc1ccccc1)C(N)=O)C(C)C)[C@@H](C)O)C(C)C)C(C)C [[Asn³, Glu¹⁴, Gly²³] -h -α-CGRP] (H-ACNTATCVTHRLAELLSRSGGVGKNNFVPTNVGSKAF-NH2; disulfide 2-7) | No deaths were observed
22 | desalanyl-deamino- [Asn³, Phe¹⁵, Gly²³] -h -α-CGRP | No deaths were observed
23 | CC(C)C[C@H](NC(=O)[C@H](CCCNC(=N)N)NC(=O)[C@H](Cc1c[nH]cn1)NC(=O)[C@@H](NC(=O)[C@@H](NC(=O)[C@@H]1CSSC[C@H](NC(=O)[C@H](C)N)C(=O)N[C@@H](CC(=O)O)C(=O)N[C@@H]([C@@H](C)O)C(=O)N[C@@H](C)C(=O)N[C@@H]([C@@H](C)O)C(=O)N1)C(C)C)[C@@H](C)O)C(=O)N[C@@H](C)C(=O)N[C@@H](CC(=O)O)C(=O)N[C@@H](CC(C)C)C(=O)N[C@@H](CC(C)C)C(=O)N[C@@H](CO)C(=O)N[C@@H](CCCNC(=N)N)C(=O)N[C@@H](CO)C(=O)NCC(=O)NCC(=O)N[C@H](C(=O)N[C@H](C(=O)N[C@@H](CCCCN)C(=O)N[C@@H](CC(N)=O)C(=O)N[C@@H](CC(N)=O)C(=O)N[C@@H](Cc1ccccc1)C(=O)N[C@H](C(=O)N1CCC[C@H]1C(=O)N[C@H](C(=O)N[C@@H](CC(N)=O)C(=O)N[C@H](C(=O)NCC(=O)N[C@@H](CO)C(=O)N[C@@H](CCCCN)C(=O)N[C@@H](C)C(=O)N[C@@H](Cc1ccccc1)C(N)=O)C(C)C)[C@@H](C)O)C(C)C)C(C)C)C(C)C [[Asp¹⁴ ] -h -α-CGRP] (H-ACDTATCVTHRLADLLSRSGGVVKNNFVPTNVGSKAF-NH2; disulfide 2-7) | No deaths were observed
